PubChem BioAssay AID1963839 (Molecular Pharmacology Branch, DTP, NCI, 2024)

System: 817829-284-R-J1-PDC complex spheroid viability
Test: Anticancer human tumor 817829-284-R-J1-PDC patient-derived colon adenocarcinoma cell line growth inhibition [POLQ]
Conditions: for IC50: curve of first compound; for viability, T/C: stronger effect = lower value; active means viability on the fitted dose curve at most 10% of control; inactive means the rest
Method: Multicellular complex tumor spheroid response to Polymerase (POL) inhibitors (novobiocin, ART-558, RP6685) in combination with a variety of drugs and investigational agents in selected tumor cell lines
The POL inhibitors (novobiocin, ART-558, and RP6685) were evaluated both individually and in combination with standard of care and investigational anticancer small molecules within a complex spheroid model of solid tumors. . Complex spheroids include a stromal component modeled by human endothelial cells (HUVEC) and fibroblasts modeled by human mesenchymal stem cells (MSCs). The concentration ranges selected for each drug and investigational agent were based upon clinically achievable concentrations if the clinical Cmax of the agent was known.
Compounds. The drugs and investigational agents: novobiocin (NSC847541), ART-558 (NSC835418), RP-6685 (NSC848927), peposertib (NSC802822), ceralasertib (NSC780249), elimusertib (NSC800525), camonsertib (NSC841442), AZD-1390 (NSC803789), olaparib (NSC753686), talazoparib (NSC767125), rucaparib (NSC756644), sotorasib (NSC818433), MRTX-1133 (NSC836407), SN-38 (NSC673596), topotecan (NSC609699), epotoside (NSC141540), doxorubicin (NSC123127), gemcitabine (NSC613327), 5-fluorouracil (NSC19893), paclitaxel (NSC125973), vemurafenib (NSC761431), MSA-2 (NSC828583), SN-011 (NSC837082), adavosertib (NSC754352), prexasertib (NSC758257), carboplatin (NSC241240) and oxaliplatin (NSC266046), were obtained from the National Cancer Institute (NCI) Developmental Therapeutics Program Chemical Repository (21). The FDA-approved anticancer drug set is available from the Developmental Therapeutics Program at https://dtp.cancer.gov/organization/dscb/obtaining/. […] The stock solutions were prepared in dimethyl sulfoxide (DMSO, Sigma-Aldrich, St. Louis, MO, cat. D2650), except for the platinum compounds which were prepared in saline (Quality Biological, Gaithersburg, MD, cat. 114-055-101), at 800-fold the tested concentration and stored at -70 degrees C prior to their use. All drugs and investigational agents were tested over a range starting from a high concentration at or near the clinical Cmax and decreasing in half-log increments. If the clinical Cmax for an agent had not been determined, the highest concentration tested was 10 microM, except for SN-38, which was tested at a high concentration of 1 microM.
Cell Culture. All cells were maintained in an incubator at 37 degrees C and 5% CO2 with 95% humidity. The PDC lines were cultured according to standard operating procedures established by the NCI PDMR (https://pdmr.cancer.gov). Table 3 of the manuscript, lists the cell lines along with the number of the three cell types plated to form the mct-spheroids and media for tumor cell growth. After thawing, all PDC lines, except 997537-175-T-J1-PDC and 415267-285-R-J2-PDC, were cultured in Matrigel-coated flasks prepared with a working solution of 1X Ham's F-12 nutrient mix, without supplementation (Thermo Fisher Scientific, cat. 11765054), 100 U/mL penicillin-streptomycin (Thermo Fisher Scientific, cat. 15140122), and 2.5% Matrigel (Corning Inc., Corning, NY, cat. 354248) for the first three passages. The two PDC lines 997537-175-T-J1-PDC and 415267-285-R-J2-PDC were cultured on uncoated flasks. The 857933-349-R-J2-PDC line was cultured in 6C/Colon 1B media containing advanced DMEM/F-12 (Thermo Fisher Scientific, cat. 12634028), 10 mM HEPES (Thermo Fisher Scientific, cat. 15630080), 1X GlutaMAX supplement (Thermo Fisher Scientific, cat. 35050061), 0.1 mg/mL primocin (InvivoGen, San Diego, CA, cat. ant-pm-2), 10% defined fetal bovine serum, heat inactivated (HyClone Laboratories Inc., Logan, UT, cat. SH30070.03HI), 50% L-WRN conditioned media (ATCC, cat. CRL-3276), 1.25 mM N-Acetyl-L-cysteine (Sigma-Aldrich, cat. A9165), 10 mM nicotinamide (Sigma-Aldrich, cat. N0636), 1X B-27 supplement (Thermo Fisher Scientific, cat. 17504044), 1X N-2 supplement (Thermo Fisher Scientific, cat. […]

[1] = second compound 0.0316 µM, first compound 0.0316 µM
[2] = second compound 0.0316 µM, first compound 0.1 µM
[3] = second compound 0.0316 µM, first compound 0.316 µM
[4] = second compound 0.0316 µM, first compound 1 µM
[5] = second compound 0.0316 µM, first compound 3.16 µM
[6] = second compound 0.0316 µM, first compound 10 µM
[7] = second compound 0.1 µM, first compound 0.0316 µM
[8] = second compound 0.1 µM, first compound 0.1 µM
[9] = second compound 0.1 µM, first compound 0.316 µM
[10] = second compound 0.1 µM, first compound 1 µM
[11] = second compound 0.1 µM, first compound 3.16 µM
[12] = second compound 0.1 µM, first compound 10 µM
[13] = second compound 0.316 µM, first compound 0.0316 µM
[14] = second compound 0.316 µM, first compound 0.1 µM
[15] = second compound 0.316 µM, first compound 0.316 µM
[16] = second compound 0.316 µM, first compound 1 µM
[17] = second compound 0.316 µM, first compound 3.16 µM
[18] = second compound 0.316 µM, first compound 10 µM
[19] = second compound 1 µM, first compound 0.0316 µM
[20] = second compound 1 µM, first compound 0.1 µM
[21] = second compound 1 µM, first compound 0.316 µM
[22] = second compound 1 µM, first compound 1 µM
[23] = second compound 1 µM, first compound 3.16 µM
[24] = second compound 1 µM, first compound 10 µM
[25] = second compound 3.16 µM, first compound 0.0316 µM
[26] = second compound 3.16 µM, first compound 0.1 µM
[27] = second compound 3.16 µM, first compound 0.316 µM
[28] = second compound 3.16 µM, first compound 1 µM
[29] = second compound 3.16 µM, first compound 3.16 µM
[30] = second compound 3.16 µM, first compound 10 µM
[31] = second compound 10 µM, first compound 0.0316 µM
[32] = second compound 10 µM, first compound 0.1 µM
[33] = second compound 10 µM, first compound 0.316 µM
[34] = second compound 10 µM, first compound 1 µM
[35] = second compound 10 µM, first compound 3.16 µM
[36] = second compound 10 µM, first compound 10 µM
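Further: spheroids exposed to compounds for 7 days.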
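Wherever viability, T/C is given: 100% = DMSO vehicle-treated spheroids.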

CCCS(=O)(=O)Nc1ccc(F)c(C(=O)c2c[nH]c3ncc(-c4ccc(Cl)cc4)cc23)c1F + Cc1cccc(N(C)C(=O)C2C(O)CCN2c2nc(C)cc(C(F)(F)F)c2C#N)c1
4070 nM: IC50 (second compound 0.316 µM)
2390 nM: IC50 (second compound 10 µM)
3710 nM: IC50 (second compound 1 µM)
2980 nM: IC50 (second compound 0.0316 µM)
inactive: viability, T/C [1] 82.6% | viability, T/C [2] 75.3% | viability, T/C [3] 81.4% | viability, T/C [4] 84.3% | viability, T/C [5] 48.3% | viability, T/C [7] 86.5% | viability, T/C [8] 83.7% | viability, T/C [9] 81.9% | viability, T/C [10] 80.8% | viability, T/C [11] 68.1% | viability, T/C [13] 94.9% | viability, T/C [14] 89.6% | viability, T/C [15] 76.4% | viability, T/C [16] 81.8% | viability, T/C [17] 63.8% | viability, T/C [19] 103% | viability, T/C [20] 91.9% | viability, T/C [21] 90.8% | viability, T/C [22] 80.5% | viability, T/C [23] 58.2% | viability, T/C [25] 104% | viability, T/C [26] 97% | viability, T/C [27] 83.3% | viability, T/C [28] 74.3% | viability, T/C [29] 66.5% | viability, T/C [30] 8.21% | viability, T/C [31] 85.7% | viability, T/C [32] 76.5% | viability, T/C [33] 66.5% | viability, T/C [34] 64.2% | viability, T/C [35] 49.5%
active: viability, T/C [6] 6.4% | viability, T/C [12] 8.39% | viability, T/C [18] 6.86% | viability, T/C [24] 6.61% | viability, T/C [36] 4.19%
3810 nM: IC50 (second compound 3.16 µM)
4450 nM: IC50 (second compound 0.1 µM)

COc1cc(C2c3cc4c(cc3C(OC3OC5COC(C)OC5C(O)C3O)C3COC(=O)C23)OCO4)cc(OC)c1O (stereo unspecified) + Cc1cccc(N(C)C(=O)C2C(O)CCN2c2nc(C)cc(C(F)(F)F)c2C#N)c1
47.5 nM: IC50 (second compound 3.16 µM)
45 nM: IC50 (second compound 10 µM)
48.6 nM: IC50 (second compound 1 µM)
inactive: viability, T/C [1] 68.8% | viability, T/C [2] 29.6% | viability, T/C [3] 15.7% | viability, T/C [4] 17.2% | viability, T/C [5] 11.5% | viability, T/C [6] 5.61% | viability, T/C [7] 65.9% | viability, T/C [8] 34.4% | viability, T/C [9] 11.6% | viability, T/C [10] 20.5% | viability, T/C [11] 13.7% | viability, T/C [12] 6.16% | viability, T/C [13] 71.5% | viability, T/C [14] 41.7% | viability, T/C [15] 15.8% | viability, T/C [16] 16.7% | viability, T/C [17] 12.2% | viability, T/C [18] 7.12% | viability, T/C [19] 63.2% | viability, T/C [20] 26.5% | viability, T/C [21] 18.9% | viability, T/C [22] 19.1% | viability, T/C [23] 14.4% | viability, T/C [24] 6.32% | viability, T/C [25] 57.4% | viability, T/C [26] 38.2% | viability, T/C [27] 18% | viability, T/C [28] 15.7% | viability, T/C [29] 12.5% | viability, T/C [31] 59.6% | viability, T/C [32] 26.6% | viability, T/C [33] 22.6% | viability, T/C [34] 17.6% | viability, T/C [35] 11.6%
active: viability, T/C [30] 6.13% | viability, T/C [36] 5.64%
56.6 nM: IC50 (second compound 0.1 µM)
55.1 nM: IC50 (second compound 0.0316 µM)
72.1 nM: IC50 (second compound 0.316 µM)

COc1cccc(OCCCN)c1-c1cc(Nc2cnc(C#N)cn2)n[nH]1 + Cc1cccc(N(C)C(=O)C2C(O)CCN2c2nc(C)cc(C(F)(F)F)c2C#N)c1
5.22 nM: IC50 (second compound 10 µM)
5.68 nM: IC50 (second compound 0.316 µM)
4.8 nM: IC50 (second compound 0.0316 µM)
4.83 nM: IC50 (second compound 3.16 µM)
active: viability, T/C [1] 5.94% | viability, T/C [2] 4.36% | viability, T/C [3] 4.2% | viability, T/C [4] 2.81% | viability, T/C [7] 5.69% | viability, T/C [8] 4.81% | viability, T/C [9] 4.14% | viability, T/C [10] 2.6% | viability, T/C [13] 4.73% | viability, T/C [14] 4.19% | viability, T/C [15] 4.39% | viability, T/C [16] 3.1% | viability, T/C [19] 5.38% | viability, T/C [20] 4.93% | viability, T/C [21] 3.71% | viability, T/C [22] 3.25% | viability, T/C [25] 5.86% | viability, T/C [26] 5.17% | viability, T/C [27] 4.05% | viability, T/C [28] 2.85% | viability, T/C [31] 5.87% | viability, T/C [32] 4.92% | viability, T/C [33] 4.34% | viability, T/C [34] 3.21%
5.63 nM: IC50 (second compound 0.1 µM)
5.28 nM: IC50 (second compound 1 µM)
inactive: viability, T/C (second compound 0.0316 µM, first compound 0.00316 µM) 70.3% | viability, T/C (second compound 0.0316 µM, first compound 0.01 µM) 14.5% | viability, T/C (second compound 0.1 µM, first compound 0.00316 µM) 86.8% | viability, T/C (second compound 0.1 µM, first compound 0.01 µM) 13.4% | viability, T/C (second compound 0.316 µM, first compound 0.00316 µM) 84.9% | viability, T/C (second compound 0.316 µM, first compound 0.01 µM) 16.4% | viability, T/C (second compound 1 µM, first compound 0.00316 µM) 78% | viability, T/C (second compound 1 µM, first compound 0.01 µM) 15.3% | viability, T/C (second compound 3.16 µM, first compound 0.00316 µM) 69.9% | viability, T/C (second compound 3.16 µM, first compound 0.01 µM) 16% | viability, T/C (second compound 10 µM, first compound 0.00316 µM) 76.6% | viability, T/C (second compound 10 µM, first compound 0.01 µM) 15.7%
